# Measurements: US5770593A, “Method of determining a pharmaceutical combination preparations for use in anti-neoplastic therapy” (Boehringer Mannheim GmbH, priority 1988, dated 1998)
# Where two headings read alike, the source gives them in different places.
# How the values were obtained:
# [1] = test system: Walker carcinoma cells; test: Inhibition of multiplication of Walker cells (cell proliferation), single active material or combination, Chou and Talalay analysis; format: cell-based, rat
# Description: Dose-action curves for individual active materials or active material combinations were obtained by the addition of corresponding active materials to a suspension of Walker cells (10^5 cells/ml.). After an incubation time of 48 hours, the cells were counted with the help of an electronic counter (Coulter Electronics, Luton, U.K.). The multiplication of the cells (M) was calculated according to the following formula:
# in which C stands for the untreated control cells, T signifies the number of treated cells and the indices 0 and t indicate the number of the cells at the time point 0 and after 48 h.
# The data used for the calculation originated from at least three different experiments.
# [2] = target: protein kinase C; test: Inhibition of protein kinase C (PK-C): in vitro method, 32P incorporation into H1 histone; format: biochemical, rat
# Description: b) Inhibition of protein kinase C (PK-C): in vitro method.
# However, to the extracts was additionally added 1 mM phenylmethanesulphonyl chloride, 20 μg./ml. leupeptin and 2 μg./ml. aprotinin. […] 1,2-s,n-diolein. The reaction time was 10 minutes at 32° C. The enzyme reaction was stopped by the addition of 1 ml. 20% trichloroacetic acid (w/v). The protein was precipitated out on Whatman GF/F filter paper and counted with the help of a liquid scintillation counter.
# Quercetin was solubilised in dimethyl sulphoxide (DMSO). For the batch mixing, the solution in DMSO was made up to a DMSO end concentration of 1%. An equivalent amount of pure DMSO was added to the control groups. The influence of quercetin on the cell multiplication was investigated by the addition of the active material in DMSO to the culture medium up to an end concentration of 0.1%. The cells were cultured in the presence of the active material for 48 hours. The control group only received pure DMSO.
# [3] = test system: Meth A-fibrosarcoma cells; test: [3H]-Thymidine incorporation, inhibition of tumour cell proliferation; format: cell-based; conditions: Table 2; ilmofosin alone; read-out: IC50, inhibition of tumour cell proliferation, single active material
# Description: b) [3H]-Thymidine incorporation.
# The cytostatic or cytotoxic effect of the active materials or active material combinations on Meth A-fibrosarcoma cells was investigated in vitro on the basis of the reduced incorporation of [3H]-thymidine. The cells were suspended in DMEM, 10% FCS, 50 μM 2-mercaptoethanol, 100 U/ml. penicillin and 100 μg./ml. streptomycin up to an end concentration of 5×10^4 /ml. in the absence of the active materials. The active materials were added to the cells in an end volume of 20 μl. Per concentration, 6 cultures of 0.2 ml. were used and incubated in microtitre plates in a moist atmosphere. The cultures were pulsed for 3 hours with 1 μCi […] [methyl-^3 H]-thymidine(specific activity 5 Ci/mmol). The samples were subsequently collected and washed several times. The filter plates used were dried and transferred to scintillation test tubes. The radio-active incorporation was measured by the addition of Rotiscint.
# The IC50 values for a combination of ilmofosin with CDDP or doxorubicin were determined in the manner described above in Example 7b).
# [4] = Rattus norvegicus, 48 h; read-out: IC50 cell proliferation in combination with cis-DDP
# [5] = Rattus norvegicus, 48 h, read-out: IC50 cell proliferation
# [6] = Rattus norvegicus, 48 h, read-out: IC50 cell proliferation in combination with cis-DDP
# [7] = combination of the inhibitor with cis-DDP, 48 hours; method of Chou and Talalay
# [8] = Table 1, 50% inhibition of the protein kinase C, read-out: inhibition of the protein kinase C IC50
# [9] = protein kinase C enriched from Walker cells, 10 minutes at 32° C., pH 7.4, read-out: IC50, inhibition of protein kinase C (Examples 2-6)
"IC50 [1, 4]",Structure (SMILES),"IC50 [1, 5]","IC50 [1, 6]","nature of the activity [1, 7]","IC50 [2, 8]","IC50 [2, 9]",further results
1.7 µM,"CCCCCCCCCCCCCCCCCCOCC(COP(=O)([O-])OCC[N+](C)(C)C)OC (stereo not drawn) [ET-18-OCH3, 4-hydroxy-7-methoxy-N,N,N-trimethyl-3,5,9-trioxa-4-phosphaheptacosan-1-aminium 4-oxide]",–,–,–,–,–,"IC50 ([1]; Rattus norvegicus; Table 1; single active material, 48 hours; read-out: IC50 cell proliferation): 5.8 µM"
–,CN[C@@H]1C[C@H]2O[C@@](C)([C@@H]1OC)n1c3ccccc3c3c4c(c5c6ccccc6n2c5c31)C(=O)NC4 [staurosporin],0.4 µM,0.004 µM,synergism,–,–,–
–,"N.N.[Cl][Pt][Cl] [cis-DDP, cis-diammine-dichloroplatinum (II)]",–,–,–,> 1000 µM,–,"IC50 ([1]; Table 1; single active material, 48 hours; read-out: IC50 cell proliferation): 0.23 µM"
2 µM,CCCCCCCCCCCCCCCCSCC(COC)COP(=O)([O-])OCC[N+](C)(C)C (stereo not drawn) [ilmofosin],–,–,synergism,0.56 µM,20 µM,IC50 [3]: 1.06 µg/mL
–,CC/C(=C(\c1ccccc1)c1ccc(OCCN(C)C)cc1)c1ccccc1 [tamoxifen],–,–,synergism,–,–,–
–,"O=c1c(O)c(-c2ccc(O)c(O)c2)oc2cc(O)cc(O)c12 [quercetin, 3,3',4',5,7-pentahydroxyflavone]",23 µM,3.8 µM,synergism,25 µM,25 µM,–
